Assay [1] has as its target T1, PI3K-beta (Homo sapiens, UniProt P42338).
T1 construct: made in house
The assay is described as follows: HTRF in vitro profiling assay for PI3K inhibition (beta isoform). Particulars: PI3K-beta enzyme pIC50 range, 200 pM enzyme, 100 uM ATP, 10 uM PIP2, 150 mM NaCl, corrected pIC50, read-out: PI3K-b Enz Activity. The class given is biochemical. The method, boiled down:
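PI3Kβ at 200 pM, preincubated 15 min with compound (11-point 3-fold series), then reacted 1 h at room temperature with 10 uM PIP2 and 100 uM ATP in buffer with 150 mM NaCl and 5 mM DTT. PIP3 formed measured by HTRF displacement of biotin-PIP3 from a GST-PH domain complex (665/620 nm).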

The test system of assay [2] is pAKT(Ser473) in MDA-MB-468 cells. As to the kind of experiment: pAKT(Ser473) assay in MDA-MB-468 cells. The class given is cell-based. Particulars: Homo sapiens, 0.5 h, compound treatment 30 minutes, MSD ELISA phospho AKT(Ser473), given as ranges, read-out: Cell Activity—pAKT IC50 in MDA-MB-468.

T1 sequence (P42338 whole entry): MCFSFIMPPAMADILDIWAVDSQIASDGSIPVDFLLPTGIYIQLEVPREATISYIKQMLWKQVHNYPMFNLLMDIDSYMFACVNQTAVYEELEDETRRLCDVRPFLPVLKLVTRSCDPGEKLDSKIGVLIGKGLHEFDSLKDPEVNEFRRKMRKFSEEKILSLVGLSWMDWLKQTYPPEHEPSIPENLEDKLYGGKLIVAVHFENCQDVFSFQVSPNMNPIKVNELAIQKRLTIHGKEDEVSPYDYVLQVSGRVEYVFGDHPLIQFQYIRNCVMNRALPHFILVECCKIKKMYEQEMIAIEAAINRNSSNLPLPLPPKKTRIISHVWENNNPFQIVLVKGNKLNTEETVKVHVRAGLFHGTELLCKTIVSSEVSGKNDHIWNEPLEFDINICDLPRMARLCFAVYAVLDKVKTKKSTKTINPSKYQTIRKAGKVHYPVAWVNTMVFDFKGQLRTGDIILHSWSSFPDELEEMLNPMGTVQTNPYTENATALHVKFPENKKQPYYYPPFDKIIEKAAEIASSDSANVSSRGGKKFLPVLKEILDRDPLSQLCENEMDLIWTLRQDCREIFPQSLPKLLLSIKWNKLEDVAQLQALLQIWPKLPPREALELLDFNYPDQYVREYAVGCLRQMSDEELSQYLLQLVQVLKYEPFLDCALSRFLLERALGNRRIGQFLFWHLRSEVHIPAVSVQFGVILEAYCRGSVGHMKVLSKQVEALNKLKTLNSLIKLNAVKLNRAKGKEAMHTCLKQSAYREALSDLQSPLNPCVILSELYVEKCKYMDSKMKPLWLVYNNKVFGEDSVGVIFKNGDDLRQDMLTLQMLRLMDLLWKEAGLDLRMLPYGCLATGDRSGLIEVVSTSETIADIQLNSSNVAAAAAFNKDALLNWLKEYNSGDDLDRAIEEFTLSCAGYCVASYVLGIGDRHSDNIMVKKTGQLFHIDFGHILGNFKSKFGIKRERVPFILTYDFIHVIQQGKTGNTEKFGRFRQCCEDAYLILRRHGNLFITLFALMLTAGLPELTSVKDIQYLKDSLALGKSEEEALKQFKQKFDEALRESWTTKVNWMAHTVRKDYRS
T1 sequence (P27986 whole entry partner): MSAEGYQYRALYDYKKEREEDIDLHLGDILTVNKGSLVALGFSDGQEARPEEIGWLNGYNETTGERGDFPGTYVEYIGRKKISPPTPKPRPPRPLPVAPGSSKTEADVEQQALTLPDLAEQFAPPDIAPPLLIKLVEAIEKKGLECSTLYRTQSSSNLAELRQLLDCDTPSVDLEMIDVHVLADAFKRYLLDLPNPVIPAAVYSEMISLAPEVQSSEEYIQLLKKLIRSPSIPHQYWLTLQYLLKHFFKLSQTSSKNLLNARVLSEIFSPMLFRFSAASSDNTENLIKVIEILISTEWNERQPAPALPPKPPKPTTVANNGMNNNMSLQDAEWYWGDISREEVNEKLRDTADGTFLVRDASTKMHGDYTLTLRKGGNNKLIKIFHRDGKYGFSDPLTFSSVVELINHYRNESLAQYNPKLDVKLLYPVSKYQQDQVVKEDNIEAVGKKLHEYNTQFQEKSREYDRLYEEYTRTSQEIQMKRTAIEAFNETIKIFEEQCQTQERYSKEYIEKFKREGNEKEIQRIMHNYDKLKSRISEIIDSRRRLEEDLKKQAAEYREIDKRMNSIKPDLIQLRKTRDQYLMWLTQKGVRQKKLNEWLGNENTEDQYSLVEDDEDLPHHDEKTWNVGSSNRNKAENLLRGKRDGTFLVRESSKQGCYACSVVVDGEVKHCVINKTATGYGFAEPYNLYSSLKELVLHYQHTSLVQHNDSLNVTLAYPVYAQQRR

For `Cc1nn2c(N)cc(N3CCOCC3)nc2c1Cc1cccc(C(F)(F)F)c1C` [Example 17, 2-methyl-3-(2-methyl-3-(trifluoromethyl)benzyl)-5-morpholinopyrazolo[1,5-a]pyrimidin-7-amine], the IC50 in assay [1] was 12.6 to 100 nM; in assay [2], below 1000 nM.

For the compound `Nc1cc(N2CCOCC2)nc2c(Cc3cccc(Cl)c3Cl)cnn12` [Example 20, 3-(2,3-dichlorobenzyl)-5-morpholinopyrazolo[1,5-a]pyrimidin-7-amine], the IC50 is 12.6 to 100 nM in assay [1] and below 1000 nM in assay [2].

Regarding `Cc1nn2c(-c3nc[nH]n3)cc(N3CCOCC3)nc2c1Cc1cccc(C(F)(F)F)c1C` [Example 41, 4-(2-methyl-3-(2-methyl-3-(trifluoromethyl)benzyl)-7-(1H-1,2,4-triazol-3-yl)pyrazolo[1,5-a]pyrimidin-5-yl)morpholine], the values for the IC50 in assay [1] and in assay [2] were 1.26 to 10 nM and 6000 to 10000 nM, respectively.

Regarding `Cc1nn2c(-c3cc[nH]n3)cc(N3CCOCC3)nc2c1Cc1cccc2ccccc12` [Example 42, 4-(2-methyl-3-(naphthalen-1-ylmethyl)-7-(1H-pyrazol-3-yl)pyrazolo[1,5-a]pyrimidin-5-yl)morpholine], the IC50 was 1.26 to 10 nM in assay [1] and below 1000 nM in assay [2].

On to `Cc1nn2c(O)cc(N3CCOC(C)C3)nc2c1Cc1cccc(C(F)(F)F)c1C` (stereo not shown) [Example 2, 2-methyl-3-(2-methyl-3-(trifluoromethyl)benzyl)-5-(2-methylmorpholino)pyrazolo[1,5-a]pyrimidin-7-ol], for which the IC50 in assay [1] was in the range of 1.26 to 10 nM; in assay [2], 1000 to 5000 nM.

The values above are taken from patent US9096605B2, “Pyrazolopyrimidine derivatives as PI3 kinase inhibitors” (GlaxoSmithKline LLC, priority 2011, dated 2015).
